Read-outs that look alike come from different tables or passages of the source.
Experiments:
trypsin [1] = target: T1, trypsin (Bos taurus, UniProt P00760); test: In vitro trypsin-mediated cleavage of hydrocodone prodrugs; type: biochemical, bovine; settings: bovine, trypsin from bovine pancreas, pH 8; adjusted to 4815 BAEE U trypsin/mL; read-out: Prodrug trypsin half-life (converted)
T1 construct: purchased Sigma-Aldrich T8003; host or cells: bovine pancreas (tissue-derived preparation)
T1 sequence (P00760 24-246): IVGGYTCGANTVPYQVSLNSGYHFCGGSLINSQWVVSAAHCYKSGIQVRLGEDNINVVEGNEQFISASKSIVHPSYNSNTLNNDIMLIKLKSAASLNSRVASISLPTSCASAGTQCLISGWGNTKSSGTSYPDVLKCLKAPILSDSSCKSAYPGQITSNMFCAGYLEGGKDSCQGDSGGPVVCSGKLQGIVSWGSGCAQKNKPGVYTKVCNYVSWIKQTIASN
Description: (§1) The reactions were conducted at 37° C. for 24 h.
(§2) Table 9 indicates the results of exposure of the tested prodrugs to trypsin.

[2] = Pharmacokinetics of oxycodone prodrugs following PO administration to dogs; settings: oxycodone in dog plasma, 5.7-[…] (prodrugs 4.15-[…]; oxycodone 2 mg/kg; OxyContin 20 mg tablet)
trypsin [3] = target: T1, trypsin; test: In vitro trypsin-mediated cleavage of oxycodone prodrugs; type: biochemical, bovine; settings: bovine, trypsin from bovine pancreas; 0.761 mM prodrug, Tris pH 8, 37° C.; adjusted to 4815 BAEE U trypsin/mL
Description: as §1
(§3) Table 4 indicates the results of exposure of the tested prodrugs to trypsin. […] Table 4 also indicates the cyclization rate of the cyclizable spacer leaving group of Compound KC-9, Compound KC-11, and Compound KC-18. The results are expressed as half-life of compound disappearance. For Compound KC-11, a diastereomer, two peaks (A and B) were analyzed.

[4] = target: T2, trypsin from bovine pancreas (Bos taurus, UniProt P00760); test: as above; type: biochemical; settings: 0.761 mM prodrug, Tris pH 8, 37° C.
T2 construct: purchased Sigma-Aldrich T8003; host or cells: bovine pancreas (tissue-derived preparation)
T2 sequence (P00760 24-246): T1 sequence (P00760 24-246)
Description: as §1, §3

[5] = Pharmacokinetics following PO administration of ketone-modified oxycodone prodrugs to rats
[6] = target: T2, trypsin from bovine pancreas; test: In vitro trypsin-mediated cleavage of hydrocodone prodrugs; type: biochemical
Description: as §1, §2

trypsin [7] = target: T1, trypsin; test: In vitro trypsin conversion of Compound TP-5 to tapentadol and inhibition by Compound 109; type: biochemical, bovine; settings: bovine, trypsin from bovine pancreas, read-out: Pro-drug trypsin half-life, Average ± sd (converted)
Description: (§4) Other reaction, incubation, sample treatment and analysis procedures were similar to those described in Example 39.

[8] = target: T2, trypsin from bovine pancreas; test: as above; type: biochemical
Description: as §4

[9] = oxycodone in rat plasma, 28-34 μmol/kg (prodrugs 16-24 mg/kg; oxycodone 10 mg/kg)

Compound | half-life at 0.761 mM (trypsin [1]) | half-life at 0.761 mM (trypsin [3]) | OC formation rate [4] | other results
COc1ccc2c3c1O[C@H]1C(OC(=O)N4CC(C(=O)O)CCC4CNC(=O)[C@H](CCCNC(=N)N)NC(=O)CNC(C)=O)=CC[C@H]4[C@@H](C2)N(C)CC[C@]314 (mixture of isomers) [Compound KC-32, N-(hydrocodone-6-enol-carbonyl)-[(2-methylamino)piperidine-3-carboxylate]-L-arginine-glycine-acetate] | 9 min | – | – | –
COc1ccc2c3c1O[C@H]1C(OC(=O)N(C)CCNC(=O)[C@H](CCCNC(=N)N)NC(=O)CC(=O)O)=CC[C@@]4(O)[C@@H](C2)N(C)CC[C@]314 [Compound KC-3, N-1-[2-(oxycodone-6-enol-carbonyl-methyl-amino)-ethylamine]-L-arginine-malonate] | – | – | – | AUC ± sd [2]: 65.6 ± 22 ng·h/mL; OC Cmax ± sd [2]: 10.2 ± 3.3 ng/mL
COc1ccc2c3c1O[C@H]1C(OC(=O)N4CCCC4CNC(=O)[C@H](CCCNC(=N)N)NC(=O)CC(=O)O)=CC[C@@]4(O)[C@@H](C2)N(C)CC[C@]314 (stereo partly drawn) [Compound KC-10, N-(oxycodone-6-enol-carbonyl)pyrrolidine-2-methylamine-L-arginine-malonate] | – | 9.01 ± 0.306 min | 0.00274 ± 0.00027 μmol/h/BAEE U | –
COc1ccc2c3c1O[C@H]1C(OC(=O)N4CCCCC4CN)=CC[C@@]4(O)[C@@H](C2)N(C)CC[C@]314 (stereo partly shown) [Compound KC-11, N-(oxycodone-6-enol-carbonyl)piperidine-2-methylamine] | – | – | – | AUC ± sd ([5]; oxycodone in rat plasma, 0 to 24 h, 28-34 μmol/kg (prodrugs 16-24 mg/kg; oxycodone 10 mg/kg)): 57.0 ± 9.0 ng·h/mL; OC Cmax ± sd [5, 9]: 13.6 ± 3.0 ng/mL; Tmax ± sd [5, 9]: 60 ± 0 min; release of oxycodone compared with Compound KC-9 ([5]; rats): significantly more oxycodone than does Compound KC-9
COc1ccc2c3c1O[C@H]1C(OC(=O)N4CCCCC4CNC(=O)[C@H](CCCNC(=N)N)NC(=O)CC(=O)O)=CC[C@@]4(O)[C@@H](C2)N(C)CC[C@]314 (stereo partly drawn) [Compound KC-12, N-(oxycodone-6-enol-carbonyl)piperidine-2-methylamine-L-arginine-malonate] | – | 9.498 ± 0.0114 min | 0.231 ± 0.0097 μmol/h/BAEE U | –
COc1ccc2c3c1O[C@H]1C(OC(=O)N4CCCCC4CNC(=O)[C@H](CCCNC(=N)N)NC(=O)[C@H](C)NC(C)=O)=CC[C@@]4(O)[C@@H](C2)N(C)CC[C@]314 (stereo partly drawn) [Compound KC-13, N-(oxycodone-6-enol-carbonyl)piperidine-2-methylamine-L-arginine-L-alanine-acetate] | – | 0.0458 ± 0.00051 min | 47.1 ± 5.72 μmol/h/BAEE U | –
COc1ccc2c3c1O[C@H]1C(OC(=O)N4CCCCC4CNC(=O)[C@H](CCCNC(=N)N)NC(=O)CNC(C)=O)=CC[C@@]4(O)[C@@H](C2)N(C)CC[C@]314 (stereo partly drawn) [Compound KC-14, N-(oxycodone-6-enol-carbonyl)piperidine-2-methylamine-L-arginine-glycine-acetate] | – | 0.5143 ± 0.00198 min | 5.48 ± 0.1 μmol/h/BAEE U | –
COc1ccc2c3c1O[C@H]1C(OC(=O)N4CCCCC4CNC(=O)[C@H](CCCNC(=N)N)NC(=O)[C@H](C)NC(=O)CC(=O)O)=CC[C@@]4(O)[C@@H](C2)N(C)CC[C@]314 (stereo partly drawn) [Compound KC-15, N-(oxycodone-6-enol-carbonyl)piperidine-2-methylamine-L-arginine-L-alanine-malonate] | – | 0.173 ± 0.0114 min | 22.3 ± 0.8 μmol/h/BAEE U | –
COc1ccc2c3c1O[C@H]1C(OC(=O)N4CCCCC4CNC(=O)[C@H](CCCNC(=N)N)NC(=O)CNC(=O)CC(=O)O)=CC[C@@]4(O)[C@@H](C2)N(C)CC[C@]314 (stereo partly drawn) [Compound KC-16, N-(oxycodone-6-enol-carbonyl)piperidine-2-methylamine-L-arginine-glycine-malonate] | – | 2.37 ± 0.162 min | 1.46 ± 0.093 μmol/h/BAEE U | –
COc1ccc2c3c1O[C@H]1C(OC(=O)N4CCCC[C@@H]4CNC(=O)[C@H](CCCNC(=N)N)NC(=O)CNC(=O)CC(=O)O)=CC[C@@]4(O)[C@@H](C2)N(C)CC[C@]314 [Compound KC-17, N-(oxycodone-6-enol-carbonyl)-R-(piperidine-2-methylamine)-L-arginine-glycine-malonate] | – | 2.65 ± 0.117 min | 1.23 ± 0.011 μmol/h/BAEE U | –
COc1ccc2c3c1O[C@H]1C(OC(=O)N4CCCC[C@@H]4CNC(=O)[C@H](CCCNC(=N)N)NC(=O)CNC(=O)CC(=O)O)=CC[C@H]4[C@@H](C2)N(C)CC[C@]314 [Compound KC-31, N-(hydrocodone-6-enol-carbonyl)-R-(piperidine-2-methylamine)-L-arginine-glycine-malonate] | 3.9 min | – | – | –
COc1ccc2c3c1O[C@H]1C(OC(=O)N4CCCC[C@@H]4CNC(=O)[C@H](CCCNC(=N)N)NC(=O)[C@H](C)NC(=O)CC(=O)O)=CC[C@H]4[C@@H](C2)N(C)CC[C@]314 [Compound KC-35, N-(hydrocodone-6-enol-carbonyl)-R-(piperidine-2-methylamine)-L-arginine-L-alanine-malonate] | 0.48 min | – | – | –
COc1ccc2c3c1O[C@H]1C(OC(=O)N4CCCC[C@@H]4CNC(=O)[C@H](CCCNC(=N)N)NC(=O)CNC(C)=O)=CC[C@H]4[C@@H](C2)N(C)CC[C@]314 [Compound KC-36, N-(hydrocodone-6-enol-carbonyl)-R-(piperidine-2-methylamine)-L-arginine-glycine-acetate] | 1.08 min | – | – | HC formation rate [6]: 0.004 ± 0.00 μmol/h/BAEE U
COc1ccc2c3c1O[C@H]1C(OC(=O)N4CCCC[C@@H]4CNC(=O)[C@H](CCCNC(=N)N)NC(=O)[C@H](C)NC(C)=O)=CC[C@H]4[C@@H](C2)N(C)CC[C@]314 [Compound KC-37, N-(hydrocodone-6-enol-carbonyl)-R-(piperidine-2-methylamine)-L-arginine -L-alanine-acetate] | – | – | – | HC formation rate [6]: 0.004 ± 0.00 μmol/h/BAEE U
COc1ccc2c3c1O[C@H]1C(OC(=O)N4CCCC[C@@H]4CNC(=O)[C@H](CCCNC(=N)N)NC(C)=O)=CC[C@H]4[C@@H](C2)N(C)CC[C@]314 [Compound KC-38, N-(hydrocodone-6-enol-carbonyl)-R-(piperidine-2-methylamine)-L-arginine-acetate] | 7.2 ± 0.6 min | – | – | HC formation rate [6]: 0.001 ± 0.00 μmol/h/BAEE U
COc1ccc2c3c1O[C@H]1C(OC(=O)N4CCCC[C@@H]4CNC(=O)[C@H](CCCNC(=N)N)NC(=O)CC(=O)O)=CC[C@H]4[C@@H](C2)N(C)CC[C@]314 [Compound KC-39, N-(hydrocodone-6-enol-carbonyl)-R-(piperidine-2-methylamine)-L-arginine-malonate] | 23.9 min | – | – | HC formation rate [6]: 0.00 ± 0.00 μmol/h/BAEE U
CC[C@@H](c1cccc(OC(=O)N2CCCCC2CNC(=O)[C@@H](CCCNC(=N)N)NC(=O)CC(=O)O)c1)[C@@H](C)CN(C)C (stereo partly drawn) [Compound TP-5, N-(Tapentadol-carbonyl)piperidine-2-methylamine-L-arginine-malonate] | – | – | – | half-life (trypsin [7]; with Compound 109 (trypsin inhibitor), 8 µM): 62.4 ± 0.0366 min; half-life (trypsin [7]): 3.99 ± 0.00024 min; Rate of TP formation, Average ± sd ([8]; Compound 109 0 μM): 0.684 ± 0.036 μmol/h/BAEE U; Rate of TP formation, Average ± sd ([8]; Compound 109 8 μM): 0.1043 ± 0.0049 μmol/h/BAEE U

Source: patent US8685916B2, “Opioid prodrugs with heterocyclic linkers” (Signature Therapeutics, Inc., priority 2011, dated 2014)
